Assay results reported in patent US20240150321A1, “PYRAZOLYLSULFONAMIDE COMPOUNDS AND THEIR USE IN THERAPY” (HOTSPOT THERAPEUTICS, INC., priority 2022, published 2024).

Legend:
Avi-tagged FL MALT-1 = Avi-tagged FL MALT-1 (Homo sapiens (Human), UniProt Q9UDY8); test: MALT-1 Fluorogenic Peptide Cleavage Assay (MALT1 inhibition assay); format: biochemical; conditions: Ac-LRSR-AMC peptide substrate, 30 min pre-incubation, 90 min reaction at room temperature
In short: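 Full-length Avi-tagged human MALT-1 (40 nM working stock) pre-incubated 30 min at RT with compound in 25 mM HEPES pH 6.89, 660 mM sodium citrate, 1 mM TCEP, […], 0.05% CHAPS, 2% DMSO. Ac-LRSR-AMC added at Km (50 μM working stock) or 10×Km (280 μM working stock); 90 min at RT, AMC fluorescence (ex 342/em 441 nm), IC50 from % inhibition curves.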

[1] = tested on: NF-kB reporter in Jurkat cells; test: NF-kB reporter assay in Jurkat cells stimulated with aCD3/aCD28/PMA; format: cell-based; conditions: Homo sapiens; Jurkat cells, 1 hr compound pre-incubation, aCD3/aCD28/PMA stimulation 4 hr, One-Glo readout; read-out: NF-kB Reporter Assay IC50
In short: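 Jurkat cells (25,000/well, serum-free RPMI) were pre-incubated 1 h at 37° C with serially diluted compound, then stimulated 4 h with aCD3/aCD28/PMA at final […]. NF-kB reporter activity was read by One-Glo luminescence; IC50 values reported.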

Sequence of Avi-tagged FL MALT-1 (Q9UDY8 whole entry): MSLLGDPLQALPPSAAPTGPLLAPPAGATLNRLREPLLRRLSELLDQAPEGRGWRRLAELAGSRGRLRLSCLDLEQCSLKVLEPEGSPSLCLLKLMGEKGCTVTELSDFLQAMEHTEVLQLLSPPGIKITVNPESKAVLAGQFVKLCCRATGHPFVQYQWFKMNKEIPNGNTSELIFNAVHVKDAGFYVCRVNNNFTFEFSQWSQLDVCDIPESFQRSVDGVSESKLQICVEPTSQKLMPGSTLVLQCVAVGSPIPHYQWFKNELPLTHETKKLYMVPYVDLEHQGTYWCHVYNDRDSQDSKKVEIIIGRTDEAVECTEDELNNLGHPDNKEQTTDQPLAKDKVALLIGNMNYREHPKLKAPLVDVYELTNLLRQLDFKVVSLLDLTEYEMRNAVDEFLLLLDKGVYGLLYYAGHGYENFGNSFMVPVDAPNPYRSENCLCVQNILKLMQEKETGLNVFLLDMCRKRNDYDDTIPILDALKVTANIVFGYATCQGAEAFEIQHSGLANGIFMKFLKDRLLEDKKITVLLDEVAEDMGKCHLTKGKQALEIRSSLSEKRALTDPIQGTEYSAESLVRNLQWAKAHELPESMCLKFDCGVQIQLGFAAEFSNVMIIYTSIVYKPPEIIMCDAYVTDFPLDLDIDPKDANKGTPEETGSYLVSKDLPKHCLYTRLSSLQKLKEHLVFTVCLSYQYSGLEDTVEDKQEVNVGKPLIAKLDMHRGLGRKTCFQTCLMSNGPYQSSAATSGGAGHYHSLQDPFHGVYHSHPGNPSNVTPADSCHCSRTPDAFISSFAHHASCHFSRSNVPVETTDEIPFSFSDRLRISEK

SMILES	IC50 (Avi-tagged FL MALT-1)	IC50 [1]
COC(C)(C)c1ccnc(-n2cc(S(=O)(=O)Nc3cccc4cnn(C)c34)cn2)c1 [Compound I-114, 1-(4-(2-Methoxypropan-2-yl)Pyridin-2-yl)-N-(1-Methyl-1H-Indazol-7-yl)-1H-Pyrazole-4-Sulfonamide]	> 2500 nM	< 400 nM
COC(C)c1ccnc(-n2cc(S(=O)(=O)Nc3cccc4cnn(C)c34)cn2)c1 (centres unmarked) [Compound I-116, 1-(4-(1-methoxyethyl)pyridin-2-yl)-N-(1-methyl-1H-indazol-7-yl)-1H-pyrazole-4-sulfonamide]	> 2500 nM	< 400 nM
Cc1cnc(-n2cc(S(=O)(=O)Nc3cccc4cnn(C)c34)cn2)cc1C(F)(F)F [Compound I-117, N-(1-methyl-1H-indazol-7-yl)-1-(5-methyl-4-(trifluoromethyl)pyridin-2-yl)-1H-pyrazole-4-sulfonamide]	1000 to 2500 nM	< 400 nM
Cn1ncc2cccc(NS(=O)(=O)c3cnn(-c4cc(C5CCOC5)ccn4)c3)c21 (centres unmarked) [Compound I-118, N-(1-methyl-1H-indazol-7-yl)-1-(4-(tetrahydrofuran-3-yl)pyridin-2-yl)-1H-pyrazole-4-sulfonamide]	> 2500 nM	< 400 nM
Cn1ncc2cccc(NS(=O)(=O)c3cnn(-c4cc(C5=CCOCC5)ccn4)c3)c21 [Compound I-119, 1-(4-(3,6-Dihydro-2H-Pyran-4-yl)Pyridin-2-yl)-N-(1-Methyl-1H-Indazol-7-yl)-1H-Pyrazole-4-Sulfonamide]	> 2500 nM	< 400 nM
Cn1ncc2cncc(NS(=O)(=O)c3cnn(-c4cc(C(C)(F)F)ccn4)c3)c21 [Compound I-120, 1-(4-(1,1-Difluoroethyl)Pyridin-2-yl)-N-(1-Methyl-1H-Pyrazolo[4,3-C]Pyridin-7-yl)-1H-Pyrazole-4-Sulfonamide]	> 2500 nM	> 2500 nM
Cn1ncc2cccc(NS(=O)(=O)c3cnn(-c4cc(C(F)(F)F)c(F)cn4)c3)c21 [Compound I-122, 1-(5-fluoro-4-(trifluoromethyl)pyridin-2-yl)-N-(1-methyl-1H-indazol-7-yl)-1H-pyrazole-4-sulfonamide]	400 to 1000 nM	< 400 nM
Cn1ncc2cccc(NS(=O)(=O)c3cnn(-c4cc(C5CCOCC5)ccn4)c3)c21 [Compound I-123, N-(1-methyl-1H-indazol-7-yl)-1-(4-(tetrahydro-2H-pyran-4-yl)pyridin-2-yl)-1H-pyrazole-4-sulfonamide]	> 2500 nM	< 400 nM

Results, then the molecule that gave them:

IC50 (Avi-tagged FL MALT-1)	IC50 [1]	SMILES
≤ 400 nM	< 400 nM	COc1ccc2cnn(C)c2c1NS(=O)(=O)c1cnn(-c2cc(C(C)(C)C)ccn2)c1 [Compound I-115, 1-(4-(tert-butyl)pyridin-2-yl)-N-(6-methoxy-1-methyl-1H-indazol-7-yl)-1H-pyrazole-4-sulfonamide]
400 to 1000 nM	< 400 nM	Cn1ncc2cccc(NS(=O)(=O)c3cnn(-c4cc(C(F)(F)F)c(Cl)cn4)c3)c21 [Compound I-121, 1-(5-Chloro-4-(Trifluoromethyl)Pyridin-2-yl)-N-(1-Methyl-1H-Indazol-7-yl)-1H-Pyrazole-4-Sulfonamide]
≤ 400 nM	< 400 nM	COc1ncc2cnn(C)c2c1NS(=O)(=O)c1cnn(-c2cc(C3(F)COC3)ccn2)c1 [Compound I-124, 1-(4-(3-fluorooxetan-3-yl)pyridin-2-yl)-N-(6-methoxy-1-methyl-1H-pyrazolo[4,3-c]pyridin-7-yl)-1H-pyrazole-4-sulfonamide]
≤ 400 nM	< 400 nM	COc1ncc2cnn(C)c2c1NS(=O)(=O)c1cnn(-c2cc(C3(OC)COC3)ccn2)c1 [Compound I-125, N-{6-methoxy-1-methylpyrazolo [4,3-c]pyridin-7-yl}-1-[4-(3-methoxyoxetan-3-yl)pyridin-2-yl]pyrazole-4-sulfonamide]
≤ 400 nM	< 400 nM	COc1ncc2cnn(C)c2c1NS(=O)(=O)c1cnn(-c2cc(C(F)F)ccn2)c1 [Compound I-126, 1-[4-(difluoromethyl)pyridin-2-yl]-N-{6-methoxy-1-methylpyrazolo[4,3-c]pyridin-7-yl}pyrazole-4-sulfonamide]
